# Measurements as given in ChEMBL document CHEMBL1129109, “Synthesis of cystamidin a (pyrrole-3-propanamide), a reported calpain inhibitor” (Bioorg Med Chem Lett, 1996).
# Target: T1, Calpain-1 catalytic subunit (Homo sapiens, UniProt P07384)
# T1 sequence (P07384 whole entry): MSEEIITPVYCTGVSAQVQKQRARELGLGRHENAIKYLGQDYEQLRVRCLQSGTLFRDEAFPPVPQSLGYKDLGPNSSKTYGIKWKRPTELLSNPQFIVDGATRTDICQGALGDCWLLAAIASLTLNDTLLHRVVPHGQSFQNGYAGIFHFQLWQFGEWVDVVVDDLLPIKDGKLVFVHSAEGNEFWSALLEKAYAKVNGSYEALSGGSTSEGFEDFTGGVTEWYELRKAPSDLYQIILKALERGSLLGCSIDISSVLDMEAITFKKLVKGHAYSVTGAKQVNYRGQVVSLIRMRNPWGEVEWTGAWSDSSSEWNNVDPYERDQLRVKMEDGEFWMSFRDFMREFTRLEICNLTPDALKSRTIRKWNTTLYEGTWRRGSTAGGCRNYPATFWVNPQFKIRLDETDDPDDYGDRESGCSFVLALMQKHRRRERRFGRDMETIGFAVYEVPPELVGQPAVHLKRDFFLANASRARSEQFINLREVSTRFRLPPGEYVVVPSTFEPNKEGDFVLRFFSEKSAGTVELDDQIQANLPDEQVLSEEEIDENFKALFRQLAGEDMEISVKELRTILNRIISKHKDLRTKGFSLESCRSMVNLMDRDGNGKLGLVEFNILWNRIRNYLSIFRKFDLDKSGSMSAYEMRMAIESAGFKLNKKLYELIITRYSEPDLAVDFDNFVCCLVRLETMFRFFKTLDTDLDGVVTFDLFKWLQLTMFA
# Assay: Inhibitory activity against calpain
smiles,measurement,value
NC(=O)CCc1cc[nH]c1,IC50,1.4 µM
